Three substances from patent publication US7875436B2 (priority 2004, dated 2011) can be followed below.

For test [1], the target named is T1, BoNTA (Clostridium botulinum, UniProt P0DPI1).
Target sequence in this assay (P0DPI1 2-448 limits assumed): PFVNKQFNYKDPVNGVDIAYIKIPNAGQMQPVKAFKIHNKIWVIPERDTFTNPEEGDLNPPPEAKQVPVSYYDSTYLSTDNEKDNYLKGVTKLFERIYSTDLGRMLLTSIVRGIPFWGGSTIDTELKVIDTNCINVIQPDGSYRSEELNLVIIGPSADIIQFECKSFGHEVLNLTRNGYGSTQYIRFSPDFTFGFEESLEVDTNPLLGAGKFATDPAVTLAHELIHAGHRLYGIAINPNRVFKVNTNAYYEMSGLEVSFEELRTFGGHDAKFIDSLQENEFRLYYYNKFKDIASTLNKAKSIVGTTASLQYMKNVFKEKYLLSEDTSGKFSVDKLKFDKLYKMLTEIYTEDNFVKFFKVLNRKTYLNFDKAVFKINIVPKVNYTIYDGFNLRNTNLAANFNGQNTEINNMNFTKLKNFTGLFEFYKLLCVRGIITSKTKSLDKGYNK
Test [2] concerns the target T1, BoNTA. This is another data set of the same source.
Target sequence in this assay (P0DPI1 whole entry, looked up): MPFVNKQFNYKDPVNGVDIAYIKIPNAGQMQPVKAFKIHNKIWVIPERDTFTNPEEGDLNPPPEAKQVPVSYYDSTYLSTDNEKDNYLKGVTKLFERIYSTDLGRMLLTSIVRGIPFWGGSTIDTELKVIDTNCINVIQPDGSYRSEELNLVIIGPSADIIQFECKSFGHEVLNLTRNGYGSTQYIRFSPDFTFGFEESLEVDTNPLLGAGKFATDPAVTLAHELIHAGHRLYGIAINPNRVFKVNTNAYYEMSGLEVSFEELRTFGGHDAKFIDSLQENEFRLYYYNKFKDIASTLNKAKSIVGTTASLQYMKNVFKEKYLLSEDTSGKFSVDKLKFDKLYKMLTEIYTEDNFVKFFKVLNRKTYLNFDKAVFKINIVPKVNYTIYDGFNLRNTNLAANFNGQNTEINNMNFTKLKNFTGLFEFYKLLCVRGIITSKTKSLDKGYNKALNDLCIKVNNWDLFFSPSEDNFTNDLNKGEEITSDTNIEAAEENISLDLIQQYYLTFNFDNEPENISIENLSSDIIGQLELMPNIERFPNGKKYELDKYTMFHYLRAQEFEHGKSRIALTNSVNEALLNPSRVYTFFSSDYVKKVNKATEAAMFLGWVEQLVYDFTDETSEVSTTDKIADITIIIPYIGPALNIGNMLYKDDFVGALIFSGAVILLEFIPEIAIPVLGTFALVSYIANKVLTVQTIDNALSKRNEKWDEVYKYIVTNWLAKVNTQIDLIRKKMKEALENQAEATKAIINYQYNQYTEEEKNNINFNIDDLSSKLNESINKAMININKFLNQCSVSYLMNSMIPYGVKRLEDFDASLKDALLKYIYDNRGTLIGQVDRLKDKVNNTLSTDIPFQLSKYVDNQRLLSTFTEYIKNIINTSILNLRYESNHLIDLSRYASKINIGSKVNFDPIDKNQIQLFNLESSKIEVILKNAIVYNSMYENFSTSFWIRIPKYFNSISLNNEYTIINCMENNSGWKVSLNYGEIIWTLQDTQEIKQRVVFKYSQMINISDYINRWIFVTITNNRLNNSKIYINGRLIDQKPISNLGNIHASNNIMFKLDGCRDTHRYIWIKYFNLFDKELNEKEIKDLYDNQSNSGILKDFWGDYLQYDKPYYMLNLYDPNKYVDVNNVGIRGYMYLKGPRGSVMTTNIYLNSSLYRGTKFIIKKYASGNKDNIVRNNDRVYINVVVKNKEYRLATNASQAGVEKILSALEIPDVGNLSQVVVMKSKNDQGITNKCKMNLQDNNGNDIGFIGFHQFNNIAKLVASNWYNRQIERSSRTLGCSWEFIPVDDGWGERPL
The target in test [3] is T1, BoNTA. The source holds these as a separate data set.
Target sequence in this assay (P0DPI1 whole entry, looked up): as above

“Also recorded” adds a separate entry of the source.

With “Ac IIGNLRHMALDMGNEIDTQNRQIDRIMEKADSNKTRIDEAN Nop R A Pya K Nle L NH2 [Substrate S9]”, the “BoNT/A concentration that can be quantified” value at BoNTA [1] (pH 7.4) was 0.2 ng/mL. Also, the “parameters (Km, kcat, Vmax) for the hydrolysis, compared with SNAP 25” value at BoNTA [2] was “more favorable than for SNAP 25; also recorded: better than those reported for SNAP 25 itself and other substrates reported to date”. On BoNTA [3], the “metabolites formed on cleavage by BoNTA” value is listed as “only two metabolites formed”.
For “Ac-S-N-K-T-R-I-D-E-A-N-Pya-R-A-Nop-K-Nle-L-NH2 [Pya^197Nop^200(187-203)SNAP25]”, the “cleavage by the toxin BoNT/A” value on BoNTA [1] is on record as “weakly cleaved”.
On to ethylene diamine tetracetate [EDTA], for which, on BoNTA [1], the “effect on fluorescence emitted by degradation of substrate S1 by BoNT/A (enzymatic activity)” value is given as “inhibition of the fluorescence”.
